Experimental data reported in patent US20190343932A1, “NOVEL TREATMENTS” (ENZYMATICA AB, priority 2014, published 2019).
Where a SMILES comes first, the peptide text is derived from it. The star is where a group is joined. pNA = O=[N+]([O-])c1ccc(N*)cc1; Cbz = O=C(OCc1ccccc1)*

Key:
Assay in all cases: Activity assay to determine kinetic constants
Format in all cases: biochemical
[1] = biological target: Atlantic cod (Gadus morhua) trypsin I (SEQ ID NO: 1) variant EZA-002, D217S, T218N, S69K (Gadus morhua, UniProt P16049, D236S/S88K/T237N)
Excerpt: (§1) The following polypeptides were obtained or produced: • (a) Wldtype trypsin I purified from Atlantic cod (“WT-Tryp” or “wildtype”); • (b) Recombinantly expressed wildtype trypsin I of Atlantic cod (SEQ ID NO:1, “R-Tryp”); and • (c) Thirty-eight different mutated versions of trypsin I of Atlantic cod (i.e. mutated sequences of SEQ ID NO:1).
(§2) Polypeptides corresponding to the wildtype amino acid sequence of trypsin I from Atlantic cod and thirty-eight mutated versions thereof were produced using the methods described in Example C.
(§3) Activation of recombinant enzymes (approximately 0.01 mg/ml) was achieved by adding wild type trypsin (0.2 U/ml) at room temperature and incubate for 24 hours. The mixture was made in 20 mM Tris-HCl, 1 mM CaCl2, 50% glycerol, pH 8.0 to a final volume of 200 μl.
(§4) The substrate (Gly-Pro-Arg) was used at concentrations 0.005-0.15 mM in assay buffer containing 1% DMSO. 245 μL of substrate solutions were pipetted into a 96-well plate. The reaction was started by adding 5 μL of the sample mixture (above) and monitored at 410 nm in a SpectraMax plate reader. Kinetic measurement was performed every minute of a continuous 15-min run.

[2] = biological target: Atlantic cod (Gadus morhua) trypsin I (SEQ ID NO: 1) variant EZA-007, N80T (Gadus morhua, UniProt P16049, N99T)
Excerpt: as §1, §2, §3, §4

[3] = biological target: Atlantic cod (Gadus morhua) trypsin I (SEQ ID NO: 1) variant EZA-004, K133L (Gadus morhua, UniProt P16049, K152L)
Excerpt: as §1, §2, §3, §4

[4] = biological target: T1, Atlantic cod (Gadus morhua) trypsin I, wildtype, purified from Atlantic cod (WT-Trp), SEQ ID NO: 1 (Gadus morhua, UniProt P16049); conditions: reference
T1 sequence (P16049 20-241): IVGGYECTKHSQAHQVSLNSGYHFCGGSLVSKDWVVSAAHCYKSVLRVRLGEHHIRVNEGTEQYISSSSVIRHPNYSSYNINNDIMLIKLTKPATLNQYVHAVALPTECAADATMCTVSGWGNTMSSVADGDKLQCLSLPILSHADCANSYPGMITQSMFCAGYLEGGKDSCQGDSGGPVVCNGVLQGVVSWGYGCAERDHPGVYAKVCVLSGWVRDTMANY
Excerpt: as §1, §2, §3, §4

[5] = biological target: Atlantic cod (Gadus morhua) trypsin I (SEQ ID NO: 1) variant EZA-003, K133T (Gadus morhua, UniProt P16049, K152T)
Excerpt: as §1, §2, §3, §4

[6] = biological target: Atlantic cod (Gadus morhua) trypsin I (SEQ ID NO: 1) variant EZA-008, I81L (Gadus morhua, UniProt P16049, I100L)
Excerpt: as §1, §2, §3, §4

[7] = biological target: T2, Atlantic cod (Gadus morhua) trypsin I, recombinant wildtype EZA-001 (no mutations), SEQ ID NO: 1 (Gadus morhua, UniProt P16049)
T2 construct: mature trypsin from MEEDK-zymogen
T2 sequence (P16049 20-241): T1 sequence (P16049 20-241)
Excerpt: as §1, §2, §3, §4

[8] = biological target: Atlantic cod (Gadus morhua) trypsin I (SEQ ID NO: 1) variant EZA-009, L165G, P202Y (Gadus morhua, UniProt P16049, L184G/P221Y)
Excerpt: as §1, §2, §3, §4

[9] = biological target: Atlantic cod (Gadus morhua) trypsin I (SEQ ID NO: 1) variant EZA-005, K133V (Gadus morhua, UniProt P16049, K152V)
Excerpt: as §1, §2, §3, §4

[10] = biological target: Atlantic cod (Gadus morhua) trypsin I (SEQ ID NO: 1) variant EZA-006, K133E (Gadus morhua, UniProt P16049, K152E)
Excerpt: as §1, §2, §3, §4

Atlantic cod (Gadus morhua) trypsin I (SEQ ID NO: 1) variant EZA-002, D217S, T218N, S69K, sequence (P16049 20-241 S88K/D236S/T237N): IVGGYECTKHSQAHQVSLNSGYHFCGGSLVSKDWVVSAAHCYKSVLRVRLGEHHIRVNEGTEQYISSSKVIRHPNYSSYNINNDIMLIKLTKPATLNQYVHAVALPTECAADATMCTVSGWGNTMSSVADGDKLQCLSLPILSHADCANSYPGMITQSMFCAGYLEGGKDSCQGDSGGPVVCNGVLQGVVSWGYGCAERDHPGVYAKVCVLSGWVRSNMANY
Atlantic cod (Gadus morhua) trypsin I (SEQ ID NO: 1) variant EZA-006, K133E, sequence (P16049 20-241 K152E): as the sequence (P16049 20-241 S88K/D236S/T237N) above, with K69S, K133E, S217D, N218T counted along it
Atlantic cod (Gadus morhua) trypsin I (SEQ ID NO: 1) variant EZA-008, I81L, sequence (P16049 20-241 I100L): as the sequence (P16049 20-241 S88K/D236S/T237N) above, with K69S, I81L, S217D, N218T counted along it
Atlantic cod (Gadus morhua) trypsin I (SEQ ID NO: 1) variant EZA-007, N80T, sequence (P16049 20-241 N99T): as the sequence (P16049 20-241 S88K/D236S/T237N) above, with K69S, N80T, S217D, N218T counted along it
Atlantic cod (Gadus morhua) trypsin I (SEQ ID NO: 1) variant EZA-005, K133V, sequence (P16049 20-241 K152V): as the sequence (P16049 20-241 S88K/D236S/T237N) above, with K69S, K133V, S217D, N218T counted along it
Atlantic cod (Gadus morhua) trypsin I (SEQ ID NO: 1) variant EZA-009, L165G, P202Y, sequence (P16049 20-241 L184G/P221Y): as the sequence (P16049 20-241 S88K/D236S/T237N) above, with K69S, L165G, P202Y, S217D, N218T counted along it
Atlantic cod (Gadus morhua) trypsin I (SEQ ID NO: 1) variant EZA-004, K133L, sequence (P16049 20-241 K152L): as the sequence (P16049 20-241 S88K/D236S/T237N) above, with K69S, K133L, S217D, N218T counted along it
Atlantic cod (Gadus morhua) trypsin I (SEQ ID NO: 1) variant EZA-003, K133T, sequence (P16049 20-241 K152T): as the sequence (P16049 20-241 S88K/D236S/T237N) above, with K69S, K133T, S217D, N218T counted along it

For `N=C(N)NCCC[C@H](NC(=O)[C@@H]1CCCN1C(=O)CNC(=O)OCc1ccccc1)C(=O)Nc1ccc([N+](=O)[O-])cc1` [Gly-Pro-Arg, Cbz-Gly-Pro-Arg-p-nitroanilide] (Cbz-Gly-Pro-Arg-pNA), the “Vmax, relative to WT-Trp” value [1] was 99, the “Vmax, relative to WT-Trp” value [2] was 99 and the “Vmax, relative to WT-Trp” value [3] was 82. The “Vmax (Kcat), relative to WT-Trp” value [4] was 100, the “Vmax, relative to WT-Trp” value [5] was 96 and the “Vmax, relative to WT-Trp” value [6] was 95. The “Vmax, relative to WT-Trp” value [7] was 99, the “Vmax, relative to WT-Trp” value [8] was 98 and the “Vmax, relative to WT-Trp” value [9] was 96. For the same molecule, the “Vmax, relative to WT-Trp” value [10] was 98.
